The results in this text go back to patent publication US20200399222A1, “PICOLINAMIDES AS FUNGICIDES” (Dow AgroSciences LLC, priority 2018, published 2020).

Common to all, as to assay type: in vivo
One assay deals with Puccinia triticina. As to the kind of experiment: Wheat brown rust (PUCCRT) disease control on wheat seedlings. Particulars: for pest or weed control at 100 ppm: High volume application; for pest or weed control at 121.5 g/ha: Low volume application. The procedure, abridged: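 Yuma wheat seedlings (first leaf emerged) sprayed to run-off with compound in acetone plus nine volumes water containing 110 ppm Triton X-100, or track-sprayed as EC formulations with 0.1% Trycol 5941. Rust spores inoculated before or after treatment; overnight dark dew, 22 °C, 100% RH, then greenhouse at 24 °C.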

A further assay has as its system Phakopsora pachyrhizi. The assay can be described thus: Asian soybean rust (PHAKPA) disease control on soybean seedlings. The conditions noted are these: High volume application at 25 ppm; for pest or weed control at 25 ppm: Phakopsora pachyrhizi. The procedure:
Example C: Evaluation of Fungicidal Activity: Asian Soybean Rust (Phakopsora pachyrhizi; Bayer Code […]) Technical grades of materials were dissolved in acetone, which were then mixed with nine volumes of water containing 0.011% Tween 20. The fungicide solutions were applied onto soybean seedlings using an automated booth sprayer to run-off. All sprayed plants were allowed to air dry prior to further handling. Soybean plants (variety Williams 82) were grown in soil-less Metro mix, with one plant per pot. Two week old seedlings were used for testing. Plants were inoculated either 3 days prior to or 1 day after fungicide treatments. Plants were incubated for 24 h in a dark dew room at 22° C. and 100% relative humidity then transferred to a growth room at 23° C. for disease to develop. Disease severity was assessed on the sprayed leaves.

A further assay concerns Zymoseptoria tritici. As to the kind of experiment: Leaf blotch of wheat (SEPTTR) disease control on wheat seedlings. Particulars: for pest or weed control at 100 ppm: High volume application; for pest or weed control at 121.5 g/ha: Low volume application.
Where [1] appears, read: 24 h, 1 Day Protectant, read-out: PUCCRT disease control rating, 1DP.
[2] abbreviates: 72 h, 3 Day Curative, read-out: PUCCRT disease control rating, 3DC.
The mark [3] stands for this setting: 72 h, 3 day curative, read-out: PHAKPA 3DC (3 Day Curative) disease control.
[4] abbreviates: 24 h, 1 Day Protectant, read-out: SEPTTR disease control rating, 1DP.
Where [5] appears, read: 72 h, 3 Day Curative, read-out: SEPTTR disease control rating, 3DC.
Where [6] appears, read: 24 h, 1 day protectant, read-out: PHAKPA 1DP (1 Day Protectant) disease control.

Read-outs that look alike come from different tables or passages of the source. Some results are limits rather than exact numbers.

Turning to `COc1ccnc(C(=O)N[C@@H](C)C(=O)O[C@@H](C)[C@@H](C)c2ccc(F)cc2C)c1O` [Example 128], the pest or weed control at 100 ppm with Puccinia triticina (setting [1]), in the assay with Puccinia triticina (setting [2]), with Zymoseptoria tritici (setting [4]) and with Zymoseptoria tritici (setting [5]) was over 80% throughout. The pest or weed control at 25 ppm in the assay on Phakopsora pachyrhizi (setting [3]) was over 80%.

Regarding `COc1ccnc(C(=O)N[C@@H](C)C(=O)O[C@@H](C)[C@@H](C)c2ccccc2C(F)(F)F)c1O` [Example 158], the pest or weed control at 100 ppm with Puccinia triticina (setting [1]) was over 80%; in the assay with Puccinia triticina (setting [2]), over 80%; with Zymoseptoria tritici (setting [4]), over 80%; in the assay on Zymoseptoria tritici (setting [5]), under 80%. The pest or weed control at 25 ppm in the assay with Phakopsora pachyrhizi (setting [3]) is under 80%.

For the molecule `COc1ccnc(C(=O)N[C@@H](C)C(=O)O[C@@H](C)[C@@H](C)c2ccc(F)cc2C(F)(F)F)c1O` [Example 159], the pest or weed control at 100 ppm in the assay with Puccinia triticina (setting [1]), in the assay on Puccinia triticina (setting [2]), in the assay with Zymoseptoria tritici (setting [4]) and in the assay with Zymoseptoria tritici (setting [5]) was over 80% each time. Also, the pest or weed control at 25 ppm with Phakopsora pachyrhizi (setting [3]) was over 80%.

As for `COc1ccnc(C(=O)N[C@@H](C)C(=O)O[C@@H](C)[C@@H](C)c2ccccc2C)c1O` [Example 175], the pest or weed control at 100 ppm in the assay on Puccinia triticina (setting [1]) is over 80%; with Puccinia triticina (setting [2]), over 80%; with Zymoseptoria tritici (setting [4]), under 80%; in the assay on Zymoseptoria tritici (setting [5]) it was under 80%. Besides, the pest or weed control at 25 ppm in the assay on Phakopsora pachyrhizi (setting [6]) and with Phakopsora pachyrhizi (setting [3]) was over 80% each time.

For `COc1ccnc(C(=O)N[C@@H](C)C(=O)O[C@@H](C)[C@@H](C)c2ccc(C)cc2C)c1OC(C)=O` [Example 177], the pest or weed control at 121.5 g/ha in the assay on Puccinia triticina (setting [1]), with Puccinia triticina (setting [2]), in the assay on Zymoseptoria tritici (setting [4]) and with Zymoseptoria tritici (setting [5]) was over 80% in each case. Moreover, the pest or weed control at 25 ppm in the assay on Phakopsora pachyrhizi (setting [6]) and in the assay on Phakopsora pachyrhizi (setting [3]) was over 80% each time.

As for `COc1ccnc(C(=O)N[C@@H](C)C(=O)O[C@H](C)[C@H](C)c2ccc(C)cc2C)c1OC(C)=O` [Example 178], the pest or weed control at 121.5 g/ha in the assay on Puccinia triticina (setting [1]), with Puccinia triticina (setting [2]), in the assay on Zymoseptoria tritici (setting [4]) and in the assay with Zymoseptoria tritici (setting [5]) was under 80% in each case. For the same molecule, the pest or weed control at 25 ppm in the assay on Phakopsora pachyrhizi (setting [6]) is over 80%; with Phakopsora pachyrhizi (setting [3]), under 80%.

Regarding `COc1ccnc(C(=O)N[C@@H](C)C(=O)O[C@@H](C)[C@@H](C)c2ccc(C)cc2C)c1OC(=O)C(C)C` [Example 179], the pest or weed control at 121.5 g/ha in the assay with Puccinia triticina (setting [1]) was over 80%; in the assay with Puccinia triticina (setting [2]), over 80%; in the assay with Zymoseptoria tritici (setting [4]) it was under 80%; with Zymoseptoria tritici (setting [5]), under 80%. Also, the pest or weed control at 25 ppm with Phakopsora pachyrhizi (setting [6]) and in the assay with Phakopsora pachyrhizi (setting [3]) was over 80% in each case.

Turning to `COc1ccnc(C(=O)N[C@@H](C)C(=O)O[C@H](C)[C@H](C)c2ccc(C)cc2C)c1OC(=O)C(C)C` [Example 180], the pest or weed control at 121.5 g/ha with Puccinia triticina (setting [1]), in the assay on Puccinia triticina (setting [2]), in the assay on Zymoseptoria tritici (setting [4]) and with Zymoseptoria tritici (setting [5]) was under 80% in each case. The results for the pest or weed control at 25 ppm in the assay on Phakopsora pachyrhizi (setting [6]) and with Phakopsora pachyrhizi (setting [3]) were over 80% and under 80%, respectively.

As to `COc1ccnc(C(=O)N[C@H](C(=O)O[C@H](C)[C@H](C)c2ccc(F)cc2C)C(C)C)c1OC(=O)C(C)C` [Example 214], the pest or weed control at 25 ppm with Phakopsora pachyrhizi (setting [6]) and in the assay with Phakopsora pachyrhizi (setting [3]) was under 80% throughout.

`COc1ccnc(C(=O)N[C@H](C(=O)O[C@H](C)[C@@H](C)c2ccccc2C)C(C)C)c1OC(=O)C(C)C` [Example 215]: the pest or weed control at 25 ppm in the assay on Phakopsora pachyrhizi (setting [6]) and with Phakopsora pachyrhizi (setting [3]) was under 80% each time.

In the case of `COc1ccnc(C(=O)N[C@H](C(=O)O[C@H](C)[C@H](C)c2ccc(F)cc2)C(C)C)c1OC(=O)C(C)C` [Example 216], the figures for the pest or weed control at 25 ppm in the assay with Phakopsora pachyrhizi (setting [6]) and with Phakopsora pachyrhizi (setting [3]) were under 80% and under 0%, respectively.

Take `COc1ccc([C@@H](C)[C@@H](C)OC(=O)[C@@H](NC(=O)c2nccc(OC)c2OC(=O)C(C)C)C(C)C)c(C)c1` [Example 217]: the pest or weed control at 25 ppm in the assay with Phakopsora pachyrhizi (setting [6]) is under 80%; with Phakopsora pachyrhizi (setting [3]), under 0%.

With `COc1ccnc(C(=O)N[C@H](C)C(=O)O[C@@H](C)[C@H](C)c2ccc(F)cc2C)c1OC(=O)C(C)C` [Example 218], the pest or weed control at 25 ppm is under 0% in the assay on Phakopsora pachyrhizi (setting [6]) and under 80% in the assay with Phakopsora pachyrhizi (setting [3]).

Consider `COc1ccnc(C(=O)N[C@H](C)C(=O)O[C@H](C)[C@H](C)c2ccc(F)cc2C)c1OC(=O)C(C)C` [Example 219], for which the pest or weed control at 25 ppm in the assay with Phakopsora pachyrhizi (setting [6]) and in the assay with Phakopsora pachyrhizi (setting [3]) was under 0% in each case.

Take `COc1ccc([C@@H](C)[C@@H](C)OC(=O)[C@H](C)NC(=O)c2nccc(OC)c2OC(C)=O)c(C)c1` [Example 220]: in the assay with Phakopsora pachyrhizi (1 day protectant), the “PHAKPA 1DP (1 Day Protectant) disease control” value (shortened to “PHAKPA 1DP”) is “B (≤80)”. For the same molecule, the “PHAKPA 3DC (3 Day Curative) disease control” value (from here on “PHAKPA 3DC”) with Phakopsora pachyrhizi (3 day curative) is reported as “B (≤80)”.

`COc1ccnc(C(=O)NCC(=O)O[C@@H](C)[C@@H](C)c2ccc(F)cc2C)c1OC(=O)C(C)C` [Example 221]: in the assay on Phakopsora pachyrhizi (1 day protectant), the “PHAKPA 1DP” value was “D (≤0)”. Moreover, the “PHAKPA 3DC” value in the assay with Phakopsora pachyrhizi (3 day curative) is on record as “D (≤0)”.

With `COc1ccc([C@H](C)[C@H](C)OC(=O)CNC(=O)c2nccc(OC)c2OC(=O)C(C)C)c(C)c1` [Example 224], the “PHAKPA 1DP” value with Phakopsora pachyrhizi (1 day protectant) is on record as “B (≤80)”. Further, in the assay with Phakopsora pachyrhizi (3 day curative), the “PHAKPA 3DC” value was “D (≤0)”.

As for `COc1ccnc(C(=O)N[C@@H](C)C(=O)O[C@H](C)[C@@H](C)c2ccccc2C)c1OC(=O)C(C)C` [Example 225], the pest or weed control at 25 ppm with Phakopsora pachyrhizi (setting [6]) and in the assay with Phakopsora pachyrhizi (setting [3]) was under 0% throughout.

Consider `COc1ccnc(C(=O)N[C@@H](C)C(=O)O[C@H](C)[C@H](C)c2ccc(F)cc2)c1OC(=O)C(C)C` [Example 226], for which the pest or weed control at 25 ppm is under 0% in the assay with Phakopsora pachyrhizi (setting [6]) and under 80% in the assay on Phakopsora pachyrhizi (setting [3]).

For the molecule `COc1ccc([C@@H](C)[C@@H](C)OC(=O)[C@H](C)NC(=O)c2nccc(OC)c2OC(=O)C(C)C)c(C)c1` [Example 227], the pest or weed control at 25 ppm in the assay with Phakopsora pachyrhizi (setting [6]) is under 80%; in the assay on Phakopsora pachyrhizi (setting [3]), under 0%.

As for `COc1ccnc(C(=O)N[C@@H](C)C(=O)O[C@@H](C)[C@H](C)c2ccccc2C)c1OC(=O)C(C)C` [Example 228], the “PHAKPA 1DP” value in the assay on Phakopsora pachyrhizi (1 day protectant) was “D (≤0)”. In the assay with Phakopsora pachyrhizi (3 day curative), the “PHAKPA 3DC” value is on record as “D (≤0)”.

For the molecule `COc1ccnc(C(=O)N[C@@H](C)C(=O)O[C@@H](C)[C@@H](C)c2ccc(F)cc2)c1OC(=O)C(C)C` [Example 229], in the assay with Phakopsora pachyrhizi (1 day protectant), the “PHAKPA 1DP” value is “D (≤0)”. Besides, in the assay on Phakopsora pachyrhizi (3 day curative), the “PHAKPA 3DC” value is given as “D (≤0)”.

Take `COc1ccc([C@H](C)[C@H](C)OC(=O)[C@H](C)NC(=O)c2nccc(OC)c2OC(=O)C(C)C)c(C)c1` [Example 230]: in the assay on Phakopsora pachyrhizi (1 day protectant), the “PHAKPA 1DP” value is listed as “D (≤0)”. The “PHAKPA 3DC” value with Phakopsora pachyrhizi (3 day curative) is “D (≤0)”.

As for `CCC(=O)Oc1c(OC)ccnc1C(=O)N[C@@H](C)C(=O)O[C@@H](C)[C@@H](C)c1ccccc1C` [Example 278], the pest or weed control at 25 ppm in the assay with Phakopsora pachyrhizi (setting [6]) and with Phakopsora pachyrhizi (setting [3]) was over 80% throughout.

As for `CCCC(=O)Oc1c(OC)ccnc1C(=O)N[C@@H](C)C(=O)O[C@@H](C)[C@@H](C)c1ccccc1C` [Example 279], the pest or weed control at 25 ppm in the assay with Phakopsora pachyrhizi (setting [6]) and in the assay on Phakopsora pachyrhizi (setting [3]) was over 80% in each case.

`CCCCC(=O)Oc1c(OC)ccnc1C(=O)N[C@@H](C)C(=O)O[C@@H](C)[C@@H](C)c1ccccc1C` [Example 280]: the pest or weed control at 25 ppm in the assay with Phakopsora pachyrhizi (setting [6]) and with Phakopsora pachyrhizi (setting [3]) was over 80% throughout.

As for `COc1ccnc(C(=O)N[C@@H](C)C(=O)O[C@@H](C)[C@@H](C)c2ccccc2C)c1OC(=O)C1CC1` [Example 281], the pest or weed control at 25 ppm with Phakopsora pachyrhizi (setting [6]) and in the assay on Phakopsora pachyrhizi (setting [3]) was over 80% in each case.

Turning to `COc1ccnc(C(=O)N[C@@H](C)C(=O)O[C@@H](C)[C@@H](C)c2ccccc2C)c1OC(=O)c1ccccc1` [Example 282], the pest or weed control at 25 ppm in the assay with Phakopsora pachyrhizi (setting [6]) and in the assay on Phakopsora pachyrhizi (setting [3]) was over 80% each time.

Turning to `COc1ccnc(C(=O)N[C@@H](C)C(=O)O[C@@H](C)[C@@H](C)c2ccccc2C)c1OCOC(=O)C(C)C` [Example 284], the pest or weed control at 25 ppm with Phakopsora pachyrhizi (setting [6]) and in the assay with Phakopsora pachyrhizi (setting [3]) was over 80% in each case.

Consider `COc1ccnc2c(=O)n([C@@H](C)C(=O)O[C@@H](C)[C@@H](C)c3ccccc3C)c(=O)oc12` [Example 285], for which the pest or weed control at 25 ppm with Phakopsora pachyrhizi (setting [6]) and in the assay with Phakopsora pachyrhizi (setting [3]) was over 80% throughout.
